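At the GI50, growth is halved. TGI: concentration producing complete growth inhibition.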
Assays:
Test in all cases: NCI tumour cell line growth inhibition, 384-well format
COLO 205 colon = test system: COLO 205 colon
EKVX NSCLC = test system: EKVX NSCLC
HOP-92 NSCLC = test system: HOP-92 NSCLC
K-562 leukemia = test system: K-562 leukemia
KM12 colon = test system: KM12 colon
NCI-H23 lung = test system: NCI-H23 lung
NCI/ADR-RES ovarian = test system: NCI/ADR-RES ovarian
SF-295 CNS = test system: SF-295 CNS
SK-MEL-2 melanoma = test system: SK-MEL-2 melanoma
SK-MEL-5 melanoma = test system: SK-MEL-5 melanoma
SK-OV-3 ovarian = test system: SK-OV-3 ovarian
TK-10 renal = test system: TK-10 renal

NC(=O)c1cccc2cn(-c3ccc([C@@H]4CCCNC4)cc3)nc12
GI50 (COLO 205 colon): 11 µM
TGI (COLO 205 colon): 23.2 µM
GI50 (EKVX NSCLC): 17.7 µM
TGI (EKVX NSCLC): 34.7 µM
GI50 (HOP-92 NSCLC): 14.3 µM
TGI (HOP-92 NSCLC): 28.3 µM
GI50 (K-562 leukemia): 10.1 µM
TGI (K-562 leukemia): 21.8 µM
GI50 (KM12 colon): 14.7 µM
TGI (KM12 colon): 28.9 µM
GI50 (NCI-H23 lung): 5.93 µM
TGI (NCI-H23 lung): 19.6 µM
GI50 (NCI/ADR-RES ovarian): 13.5 µM
TGI (NCI/ADR-RES ovarian): 29.6 µM
GI50 (SF-295 CNS): 2.64 µM
TGI (SF-295 CNS): 7.79 µM
GI50 (SK-MEL-2 melanoma): 23.2 µM
TGI (SK-MEL-2 melanoma): 37.9 µM
GI50 (SK-MEL-5 melanoma): 7.81 µM
TGI (SK-MEL-5 melanoma): 19.4 µM
GI50 (SK-OV-3 ovarian): 11.7 µM
TGI (SK-OV-3 ovarian): 28.8 µM
GI50 (TK-10 renal): 16.2 µM
TGI (TK-10 renal): 34 µM
